Test results reported in paper PMC5556019, “Targeting Apolipoprotein E/Amyloid β Binding by Peptoid CPO_Aβ17-21 P Ameliorates Alzheimer’s Disease Related Pathology and Cognitive Decline” (Scientific Reports, 2017).
Numbered stars: 1 amine (or outer) side, 2 acyl side, 3 side chain; on linkers, the order of the positions; unused ones are H or OH. Bridge positions count the residues as written; N and C are the ends. Square brackets hold non-standard residues; d marks the D form. Peptide text beside a SMILES is read from it. ξ: configuration not given here. N(CH2CH2CO)Gly = O=C(CN(CCC(=O)[*:3])[*:1])[*:2]; Nphe = O=C(O)CNCc1ccccc1; Nleu = CC(C)CNCC(=O)O; ξP = O=C(O)C1CCCN1; Sar = CNCC(=O)O

Tests used:
apoE4/Aβ42 binding = biological target: T1, apoE4/Aβ42 binding (Homo sapiens, UniProt P02649, C130R); assay: Surface plasmon resonance assay of apoE4/Aβ42 binding inhibition
T1 construct: purchased BioVision (Milpitas, CA)
Protocol: Experiments were performed using a Reichert SR7000DC refractometer system (Reichert, New York) equipped with a CM5 sensor chip. Acetate buffer was used for immobilization of the peptide Aβ42 (ligand). […] Importantly, Aβ42 species are considered critical for seeding of amyloid deposits, [32]. CM-dextran on a CM5 gold sensor chip was activated by injecting a solution of 10 mg/mL N-Hydroxysuccinimide (NHS) and 40 mg/mL 1-Ethyl-3-(3-dimethylaminopropyl) carbodiimide (EDC) over the sensor chip surface for 7 min at a flow rate of 20 µL/min. Then the ligand, 50 µg/mL HFIP treated synthetic peptide Aβ42 in 10 mM sodium acetate, pH 4.5, was immobilized by injection over the surface for 20 min. The unreacted sites on the sensor chip surface were blocked by injection of 1 M ethanolamine, pH 8.5 for 10 min. […] After each binding cycle the surface was regenerated by a short, fast injection of 10 mM hydrochloric acid. To verify results analytes containing lipidated human apoE4 molecules or lipidated human apoE3 molecules incubated with peptoid inhibitors in phosphate buffered saline with 0.05% TWEEN 20, pH 7.4 (PBST) were tested and the association and dissociation reactions were monitored.

[1] = tested on: apoE4 mediated Aβ40 aggregation; assay: Thioflavin T assay of apoE4 mediated Aβ40 aggregation; format: biochemical, human
Protocol: Peptide Aβ42 or peptoid CPO_Aβ17-21 P were incubated alone at a concentration of 100 µM over a period of 7–10 days at 37 °C in 100 mM Tris buffer (pH 7.4). […] In aggregation inhibition experiments, apoE4 was pre-incubated with CPO_Aβ17-21 P in a molar ratio of 1:2 for 6 hrs at 37 °C followed by addition to freshly reconstituted Aβ42 on ice (molar ratio 100:1:2, Aβ42:apoE4:peptoid). As a control, Aβ42 was also incubated with CPO_Aβ17-21 P at a molar ratio of 100:2. For peptide Aβ40 all the experiments were conducted under the same conditions as Aβ42 except the peptide concentration was 400 µM. The molar ratio of Aβ40:apoE4:CPO_Aβ17-21 P was 100:1:2. (400 µM Aβ40:4 µM apoE4:8 µM CPO_Aβ17-21 P). Fibril formation by the different peptides at various time points was evaluated by a standard Thioflavin-T assay according to previously published protocols, [33].The samples were diluted in buffer containing 50 mM glycine, 2 µM Thioflavin T pH 9.2, and read on a Molecular Devices SpectraMax M2 spectrophotometer (Sunnyvale, CA) at excitation and emission wavelengths 440 and 482 nm.

APP/PS1 Tg mice = assay: Brain Aβ and oligomeric Aβ levels by ELISA and western blot; format: in vivo, mouse
Protocol: The effect of CPO_Aβ17-21 P on Aβ deposition was tested in APP/PS1 Tg mice with plaque pathology. This AD mouse model develops plaque pathology from the age of 3 months. Animals were divided into two groups and received intraperitoneally (i.p.) injections of 0.2 mg of CPO_ Aβ17–21 P per mouse in sterile saline (n = 11, 5 male, 6 female) or saline alone (n = 10, 5 male, 5 female) as a control twice weekly for 4 months, beginning at age 3 months. During the treatment, veterinary staff monitored animals for any signs of toxicity, such as changes in body weight, physical appearance, and altered behavior. Animals were sacrificed a week after administration of the last treatment dose and behavioral testing. All mouse care and experimental procedures were compliant with guidelines of animal experimentation and were approved by the Institutional Animal Care and Use Committee at the New York University School of Medicine.
Brains were weighed and homogenized (10% w/v) in tissue homogenization buffer (20 mM Tris base, pH 7.4, 250 mM sucrose, 1 mM EDTA, 1 mM EGTA) with […] phenylmethylsulphonyl fluoride, complete protease inhibitor cocktail and PhosSTOP phosphatase inhibitor cocktail (Roche, Indianapolis, IN, USA) added immediately before homogenization. The extraction of soluble Aβ and total Aβ was according to the method we have published previously, [44]. Brain homogenates were mixed with an equal volume of cold 0.4% diethylamine (DEA)/100 mM NaCl, and subsequently centrifuged at 100,000 × g for 1 hr at 4 °C. The supernatant was neutralized with 1/10 volume of 0.5 M Tris, pH 6.8, flash-frozen on dry ice and stored at −80 °C until used for ELISA analysis as soluble Aβ fraction. […] Soluble and total Aβ levels in the brain were measured by sandwich ELISA which used 6E10 monoclonal antibody as a capture antibody and two detection polyclonal antibodies R162 and R165 specific for Aβ40 and Aβ42, respectively. […]
Oligomeric Aβ (o-Aβ) levels were determined with the Biosensis Oligomeric Amyloid-Beta ELISA kit (Biosensis, Thebarton, South Australia) following the manufacturer’s instructions. In brief, the unknown concentrations of o-Aβ in samples were measured against a standard containing different concentrations of o-Aβ. […] The TMB reaction was stopped and the absorbance of each well was read at 450 nm. The standards provided a linear curve and the best-fit line determined by linear regression were used to calculate the concentration of Aβ oligomers in the samples
Brain homogenates were centrifuged at 100,000 × g for 1 hr at 4 °C. The supernatants were collected and the total protein concentrations were determined by the bicinchoninic acid assay (BCA; Pierce, Rockford, IL). […]

T1 sequence (P02649 19-317 C130R): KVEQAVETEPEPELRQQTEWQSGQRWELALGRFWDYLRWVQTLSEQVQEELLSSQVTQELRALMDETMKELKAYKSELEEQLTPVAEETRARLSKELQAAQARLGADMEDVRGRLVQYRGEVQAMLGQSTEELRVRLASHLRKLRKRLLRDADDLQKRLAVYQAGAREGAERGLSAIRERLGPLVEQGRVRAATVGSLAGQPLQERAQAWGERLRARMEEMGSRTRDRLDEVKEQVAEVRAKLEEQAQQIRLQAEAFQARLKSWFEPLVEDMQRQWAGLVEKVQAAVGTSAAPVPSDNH

CC(C)CN1CC(=O)N2CCCC2C(=O)N(Cc2ccccc2)CC(=O)N(Cc2ccccc2)CC(=O)N(C)CC(=O)N(CC(N)=O)CCC1=O (stereo not shown) [CPO_Aβ17-21 P] ([Nleu][ξP][Nphe][Nphe][Sar][N(CH2CH2CO)Gly]-NH2; lactam N-6)
inhibition of apoE4/Aβ42 binding (apoE4/Aβ42 binding; SPR, 2:1 molar ratio (peptoid:apoE4)): 50% | inhibition of apoE4/Aβ42 binding (apoE4/Aβ42 binding; SPR, 8:1 molar ratio (peptoid:apoE4)): near complete inhibition | inhibition of apoE4/Aβ42 binding (library screen) (apoE4/Aβ42 binding; SPR, immobilised Aβ42, recombinant human apoE4 pre-incubated with peptoid, PBST pH 7.4): inhibited apoE4/Aβ42 binding | IC50 (apoE4/Aβ42 binding; one-site competition nonlinear regression, Fig. 1d legend: lipidated apoE/Aβ binding, read-out: half-maximal inhibition (IC50) of apoE/Aβ binding): 1.02 nM | inhibition of apoE4 mediated Aβ40 aggregation ([1]; 400 µM Aβ40:4 µM apoE4:8 µM peptoid, apoE4 pre-incubated with peptoid 6 hrs 37 °C, p = 0.0034): significant inhibition | Aβ40 fibril formation with peptoid versus Aβ40 alone ([1]; Aβ40 + peptoid without apoE4, molar ratio 100:2): no significant difference | Aβ42 in the insoluble (formic acid) brain fraction (APP/PS1 Tg mice; ELISA, p < 0.0001 versus vehicle): Reduction | Aβ40 in the insoluble (formic acid) brain fraction (APP/PS1 Tg mice; ELISA, p < 0.001 versus vehicle): Reduction | Aβ oligomeric species by western blot (APP/PS1 Tg mice; anti-amyloid antibody 4G8, brain homogenates, p < 0.05 versus vehicle): Reduction | Aβ oligomeric species by ELISA (APP/PS1 Tg mice; brain homogenates, p < 0.05 versus vehicle): Reduction
